Reference: ChEMBL document CHEMBL1143234, “Uncovering false positives on a virtual screening search for cruzain inhibitors” (Bioorg Med Chem Lett, 2008)
Calls of active or inactive are those of the source. No cut-off for these calls is given here.

Columns and labels:
[1] = molecular target: Cruzipain (Trypanosoma cruzi) (UniProt P25779); assay: Inhibition of Trypanosoma cruzi cruzain
[2] = molecular target: Cruzipain (Trypanosoma cruzi) (UniProt P25779); assay: Inhibition of Trypanosoma cruzi cruzain upto 7.22 mM
[3] = molecular target: Cruzipain (Trypanosoma cruzi) (UniProt P25779); assay: Inhibition of Trypanosoma cruzi cruzain upto 0.67 mM
[4] = molecular target: Cruzipain (Trypanosoma cruzi) (UniProt P25779); assay: Inhibition of Trypanosoma cruzi cruzain upto 38.71 mM

Sequence of Cruzipain (Trypanosoma cruzi) (P25779 123-467 limits assumed): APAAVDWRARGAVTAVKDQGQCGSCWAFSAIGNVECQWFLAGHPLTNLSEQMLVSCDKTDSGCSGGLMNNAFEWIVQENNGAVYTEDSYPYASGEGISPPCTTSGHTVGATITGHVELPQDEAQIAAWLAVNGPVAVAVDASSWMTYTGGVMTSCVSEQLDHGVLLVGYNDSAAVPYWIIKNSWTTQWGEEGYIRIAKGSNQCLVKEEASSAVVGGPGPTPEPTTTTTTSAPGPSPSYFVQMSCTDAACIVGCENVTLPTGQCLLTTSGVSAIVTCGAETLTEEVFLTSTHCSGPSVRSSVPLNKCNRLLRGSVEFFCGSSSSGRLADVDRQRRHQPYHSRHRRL

O=C(/C=C/c1cccs1)NC(Cc1ccccc1)c1nc2ccccc2[nH]1 (stereo unspecified)
Activity [1]: 44.9 µM

N#CC1(NC(=O)c2cc3ccccc3oc2=O)CCCCC1
Activity [2]: inactive

O=C(NC(Cc1c[nH]c2ccccc12)C(=O)N/N=C1\CCCN1)c1cccs1 (stereo unspecified)
Activity [3]: inactive

N#Cc1ccccc1NC(=O)C(=O)Nc1ccccc1C#N
Activity [1]: 17.3 µM

N#Cc1ccsc1NC(=O)/C=C/c1cccc(Cl)c1
Activity [4]: inactive

N#Cc1c(NC(=O)CC(NC(=O)c2ccccc2Cl)c2ccccc2)sc2c1CCCC2 (stereo unspecified)
Activity [1]: 4.17 µM
